Where two headings read alike, the source gives them in different places.
Tests used:
[1] = system: HTB-94 cells; experiment: Accumulation of TIMP-3 in the medium of cultured HTB-94 cells; format: cell-based
Protocol: This example describes an assay to evaluate the accumulation of TIMP-3 in the medium of cultured cells. HTB-94™ cells (a chondrocytic cell line available from the American Type Culture Collection, Manassas, Va.) are plated to 24-well tissue culture plates at 1×10̂5 cells per well in 1 ml growth medium (RPM11640, 10% FBS, 1% PSG), and incubated at 37 C, 5% CO2 overnight. The cells are then washed once with PBS, and the wells are replenished with 250 microL serum-free medium (RPM11640, 1% PSG; designated SF in the tables below) to which is added the polypeptide being tested or a control (for example medium containing heparin, 1 mg/ml). Proteins to be tested are diluted to appropriate concentrations, for example as shown in the Tables below, and added to the cells. Cells are then incubated at 37 C, 5% CO2 for two additional days, day 2 conditioned medium (CM) samples are collected and clarified by centrifugation (i.e., for 5 minutes at 10K RPM) and the supernatant fluid is collected and stored at −20 C until assayed. Analysis is done on 100 microL CM samples, either by Western blot or by using a standard human TIMP-3 ELISA as per the manufacturer's protocol (R&D Systems Inc., Minneapolis, Minn.).

[2] = system: biotinylated recombinant human or mouse TIMP-3; experiment: TIMP-3 AlphaScreen binding assay
Protocol: Peptides were also evaluated by AlphaScreen® (Amplified Luminescent Proximity Homogeneous Assay; PerkinElmer, Waltham, Mass.) a very sensitive non-radioactive homogeneous assay technology that allows the screening of a large range of biological interactions and activities, substantially according to the manufacturer's instructions. Briefly, all dilutions are made in AlphaScreen® Buffer: [40 mM HEPES pH 7.5, 100 mM NaCl, 1 mM CaCl2, 0.1% BSA, 0.05% Tween-20]. The LRP-1 peptides are titrated in a separate polypropylene 96-well plate (Falcon) starting at 4 microM concentration and then diluted serially 3-fold for 12-points, with the last point buffer only. First 2 microL/well of protein titration curve is added to white, small volume, 384-well assay plate (Greiner Bio-One, Stonehouse, UK) in duplicate. Next, 2 microL of biotinylated (AFS, in-house conjmicroGation) recombinant human or mouse TIMP-3, is added at 12 nM (or 3 nM final assay concentration) to the assay plate. Lastly, in subdued light 4 microL of a mixture of streptavidin donor beads, anti-mouse IgG acceptor beads (PerkinElmer) both diluted to 20 microG/mL (10 microG/mL final assay concentration) and 2 nM (1 nM final concentration) rat-anti-HA (clone3F10)-HRP (Roche Diagnostics) is added to the plates. Plates containing 8 microL final assay volume are covered with TopSeal A (to prevent evaporation), spun quickly at 1000 rpm, and incubated overnight (covered with foil to prevent light exposure) before reading on Fusion plate reader (PerkinElmer) using AlphaScreen® parameters (excitation 680 nm and emission 520-620 nm). Data is analyzed using GraphPad Prism 4.01 software. Binding to TIMP-3 is reported as total signal (cps).

[3] = molecular target: TIMP-3; experiment: Binding ELISA of LRP-1 peptides to TIMP-3 (Table 2; format and species not specified); design: species or system human or mouse
[4] = Assay 2, read-out: Binding ELISA EC50 (nm) Assay 2
[5] = Assay 1, read-out: Binding ELISA EC50 (nm) Assay 1

AlphaScreen total signal (cps) Assay 1 [2]	AlphaScreen total signal (cps) Assay 2 [2]	Molecule	TIMP-3 (ng/ml) in conditioned medium ([1]; Table 7, peptides 2 microM) [ng/mL]	TIMP-3 (ng/ml) in conditioned medium ([1]; Table 6, peptides 2 microM) [ng/mL]	other results
		Cluster III: LRP-1 peptide, amino acids 2524- (end not printed)			Accumulation of TIMP-3 in conditioned medium by Western blot [1]: did not result in significant accumulation
9,000 cps	3,500 cps	LA3-4: LRP-1 peptide multimer, amino acids 854-930			
4,000 cps	9,000 cps	LA3-5: LRP-1 peptide multimer, amino acids 854-975	4.22		
2,200 cps	2,000 cps	LA3: LRP-1 peptide monomer, amino acids 854-894		0.60	
2,200 cps	2,000 cps	LA4-5: LRP-1 peptide multimer, amino acids 895-975	2.68		
2,000 cps	8,000 cps	LA5-7: LRP-1 peptide multimer, amino acids 931-1061			
2,200 cps	2,000 cps	LA5: LRP-1 peptide monomer, amino acids 931-975		0.94	EC50 [3, 4]: 1.08 µM
2,200 cps		LA6: LRP-1 peptide monomer, amino acids 976-1014		1.07	
2,200 cps		LA16: LRP-1 peptide monomer, amino acids 2734-2773		0.94	
2,200 cps		LA17: LRP-1 peptide monomer, amino acids 2774-2817		1.06	EC50 [3, 4]: > 5 µM
3,000 cps		LA18-20: LRP-1 peptide multimer, amino acids 2818- (end not printed)			EC50 [3, 5]: ~0.3 µM
2,200 cps		LA18: LRP-1 peptide monomer, amino acids 2818-2857		1.11	EC50 [3, 4]: > 10 µM
2,200 cps		LA19: LRP-1 peptide monomer, amino acids 2858-2903		1.06	EC50 [3, 4]: > 10 µM
2,200 cps		LA20: LRP-1 peptide monomer, amino acids 2904-2943 (CNASSQFLCSSGRCVAEALLCNGQDDCGDSSDERGCHINE)		0.96	EC50 [3, 4]: > 10 µM
3,000 cps		LA21-23: LRP-1 peptide multimer, amino acids 3334- (end not printed)	4.46		EC50 [3, 5]: 0.243 µM
2,200 cps		LA21: LRP-1 peptide monomer, amino acids 3334-3373		1.82	
2,200 cps		LA22: LRP-1 peptide monomer, amino acids 3374-3412		0.96	
2,200 cps	2,000 cps	LA23-24: LRP-1 peptide multimer, amino acids 3413-3493	1.38		
2,200 cps		LA23: LRP-1 peptide monomer, amino acids 3413-3452		0.87	EC50 [3, 4]: > 5 µM
290,000 cps	130,000 cps	LA24-25: LRP-1 peptide multimer, amino acids 3453-3535	2.48		
150,000 cps	120,000 cps	LA24-26: LRP-1 peptide multimer, amino acids 3453- (end not printed)	10.38		
2,200 cps	2,000 cps	LA24: LRP-1 peptide monomer, amino acids 3453-3493		0.41	
20,000 cps	5,000 cps	LA25-26: LRP-1 peptide multimer, amino acids printed as 3594-3574	9.30		
5,000 cps	2,000 cps	LA25: LRP-1 peptide monomer, amino acids 3494-3535	1.24		
2,200 cps		LA26: LRP-1 peptide monomer, amino acids 3536-3574	1.01		
2,200 cps		LA27: LRP-1 peptide monomer, amino acids 3575-3612	0.65		
90,000 cps	70,000 cps	LA15-17: LRP-1 peptide multimer, amino acids 2696- (end not printed) (protein) CPLNYFACPSGRCIPMSWTCDKEDDCEHGEDETHCNKFCSEAQFECQNHRCISKQWLCDGSDDCGDGSDEAAHCEGKTCGPSSFSCPGTHVCVPERWLCDGDKDCADGADESIAAGCLYNST	4.70		
		Cluster I: LRP-1 peptide, amino acids 27-114 of LRP-1 (SEQ ID NO:1) (protein, listed as Homo sapiens) CSPKQFACRDQITCISKGWRCDGERDCPDGSDEAPEICPQSKAQRCQPNEHNCLGTELCVPMSRLCNGVQDCMDGSDEGPHCRELQGN	0.87	0.65	TIMP-3 (ng/ml) in conditioned medium ([1]; Table 5, polypeptide 0.5 microM): 1.02 ng/mL; TIMP-3 (ng/ml) in conditioned medium ([1]; Table 5, polypeptide 1 microM): 0.86 ng/mL; TIMP-3 (ng/ml) in conditioned medium ([1]; Table 5, polypeptide 2 microM): 0.81 ng/mL; TIMP-3 (ng/ml) in conditioned medium ([1]; Table 8, polypeptide 0.5 microM): 1.41 ng/mL; TIMP-3 (ng/ml) in conditioned medium ([1]; Table 8, polypeptide 1 microM): 1.19 ng/mL; TIMP-3 (ng/ml) in conditioned medium ([1]; Table 8, polypeptide 2 microM): 1.44 ng/mL; Accumulation of TIMP-3 in conditioned medium by Western blot [1]: did not result in significant accumulation
	100,000 cps	LA3-10: LRP-1 peptide multimer, not listed in Table 1 (protein) CQPGEFACANSRCIQERWKCDGDNDCLDNSDEAPALCHQHTCPSDRFKCENNRCIPNRWLCDGDNDCGNSEDESNATCSARTCPPNQFSCASGRCIPISWTCDLDDDCGDRSDESASCAYPTCFPLTQFTCNNGRCININWRCDNDNDCGDNSDEAGCSHSCSSTQFKCNSGRCIPEHWTCDGDNDCGDYSDETHANCTNQATRPPGGCHTDEFQCRLDGLCIPLRWRCDGDTDCMDSSDEKSCEGVTHVCDPSVKFGCKDSARCISKAWVCDGDNDCEDNSDEENCESLACRPPSHPCANNTSVCLPPDKLCDGNDDCGDGSDEGELCDQ			EC50 [3, 5]: 0.0455 µM; EC50 ([3]; Assay 3, read-out: Binding ELISA EC50 (nm) Assay 3): 0.0325 µM
1,200 cps		LA13-15: LRP-1 peptide multimer, amino acids 2605- (end not printed) (protein) CGVGEFRCRDGTCIGNSSRCNQFVDCEDASDEMNCSATDCSSYFRLGVKGVLFQPCERTSLCYAPSWVCDGANDCGDYSDERDCPGVKRPRCPLNYFACPSGRCIPMSWTCDKEDDCEHGEDETHCNKF			
